Measurements: patent US20260327211A1, “MODULATORS OF A POTASSIUM CHANNEL AND OF TRPV1 CHANNEL AND USES THEREOF” (Bsense Bio Therapeutics Ltd., priority 2023, published 2026)
Like-named read-outs stand apart in the source and are kept apart here. One block for each compound: values may come before it.

Legend:
[1] = Ligand-lipophilicity efficiency (LLE); assay type: physicochemical
Excerpt: Ligand-lipophilicity efficiency (LLE) is a parameter used in drug design and drug discovery to evaluate the quality of research compounds, linking potency and lipophilicity.
To follow LLE values, the following equation was used: […]
Suitable LLE value are typically higher than 3 or higher than 5.

[2] = Human hepatocyte stability; assay type: in vitro ADME; settings: human hepatocytes; for half-life: read-out: Hepatocytes (human) T1/2
Rat hepatocyte stability = assay type: in vitro ADME; settings: hepatocytes; for half-life: read-out: Hepatocytes (rat) T1/2
CYP2C9 = biological target: T1, CYP2C9 (Homo sapiens, UniProt P11712); test: CYP inhibition / time-dependent inhibition, CYP2C9_Diclofenac; assay type: in vitro ADME; settings: role: inhibitor
T1 construct: pre-incubation of the human liver microsomes with the test compound; tissue Corning; host or cells: human liver microsomes
T1 sequence (P11712 whole entry): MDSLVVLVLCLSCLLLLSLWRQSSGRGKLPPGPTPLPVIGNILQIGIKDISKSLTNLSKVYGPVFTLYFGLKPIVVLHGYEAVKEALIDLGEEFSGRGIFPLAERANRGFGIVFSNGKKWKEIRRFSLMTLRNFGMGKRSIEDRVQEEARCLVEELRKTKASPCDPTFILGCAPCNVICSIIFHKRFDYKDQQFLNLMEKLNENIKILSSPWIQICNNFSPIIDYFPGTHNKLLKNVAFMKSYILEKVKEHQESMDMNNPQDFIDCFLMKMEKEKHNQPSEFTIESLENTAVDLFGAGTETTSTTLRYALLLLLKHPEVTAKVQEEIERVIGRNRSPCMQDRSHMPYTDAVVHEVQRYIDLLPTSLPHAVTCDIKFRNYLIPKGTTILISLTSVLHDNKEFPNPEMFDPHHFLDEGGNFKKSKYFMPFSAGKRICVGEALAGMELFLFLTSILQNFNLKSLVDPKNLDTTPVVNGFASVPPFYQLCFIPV
Procedure: (§1) The time-dependent inactivation potency of the test compound to CYP enzymatic activities was assessed by the pre-incubation of the human liver microsomes with the test compound in the presence and absence of NADPH, followed by the incubation with the discrete marker substrates, as follows.
(§2) Pre-incubation with human liver microsomes (HLMs): The TDI inactivation potency on CYP enzymatic activities was evaluated through pre-incubation with HLMs (Corning). A liver microsome mixture at a concentration of 0.1 mg/mL, and the test compound at 8 different concentrations (0, 0.05, 0.165, 0.5, 1.65, 5.0, 16.5, or 50.0 μM) was warmed at 37° C. for 10 minutes. Concurrently, a set of known time-dependent inactivators was also prepared in duplicate for comparison. Following this, NADPH (1.0 mM) was added to one group (Group 1), and an equal volume of potassium phosphate buffer to the second group (Group 2), marking the beginning of a 30-minute pre-incubation at 37° C.
(§3) Incubation: After pre-incubation, the marker substrate, or marker substrate plus NADPH was added to the mixture, thereby initiating the incubation. The duration of the incubation was dependent on the type of CYP isoform being evaluated. For example, with the CYP3A isoform, the mixture was incubated over 3 minutes utilizing midazolam as the marker substrate (2.0 μM), verapamil as the standard inactivator (3.5 μM).
(§4) Termination of Reaction: Following the incubation, ice-cooled acetonitrile containing the internal standard (IS) was added to halt the reactions. Metabolites generated from the marker substrates were then measured via LC-MS/MS, assessed based on peak area ratios of the analyte to IS.

opioid mu receptor = biological target: T2, opioid mu receptor (Homo sapiens, UniProt P35372); test: Functional selectivity panel, opioid mu receptor; assay type: biochemical
T2 construct: Eurofins DiscoverX, USA (assay provider)
T2 sequence (P35372 whole entry): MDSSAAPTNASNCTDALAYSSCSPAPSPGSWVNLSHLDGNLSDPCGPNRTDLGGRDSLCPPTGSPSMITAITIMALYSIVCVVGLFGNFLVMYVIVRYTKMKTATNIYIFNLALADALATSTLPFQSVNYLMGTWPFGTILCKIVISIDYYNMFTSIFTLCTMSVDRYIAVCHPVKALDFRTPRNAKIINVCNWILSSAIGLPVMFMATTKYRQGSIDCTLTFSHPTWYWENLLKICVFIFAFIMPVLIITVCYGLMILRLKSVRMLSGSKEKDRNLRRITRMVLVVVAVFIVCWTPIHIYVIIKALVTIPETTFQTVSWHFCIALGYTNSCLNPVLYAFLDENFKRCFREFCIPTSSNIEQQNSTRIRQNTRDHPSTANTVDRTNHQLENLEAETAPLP
Procedure: A broad panel of 78 recombinant targets was tested for pharmacologic activity in vitro through a variety of functional assays (Eurofins DiscoverX, USA), as part of the National Institute of Neurological Disorders and Stroke (NINDS) Preclinical Screening Platform for Pain (PSPP) program. The biological targets for the in vitro profiling have been selected based on avoiding opioid receptor stimulation and targets known to be associated with adverse events or targeted by drugs of abuse. […] For each test, a reference compound was evaluated at the target of interest as a positive control.

rats = test: Accelerating rotarod; assay type: in vivo, rat
Procedure: Rotarod: There were two days of training in which rats were trained at a constant speed of 5 RPM for 180 seconds. After each fall the rats were placed back on the rotating rod until 180 seconds were reached. Then, the actual test started on study day 0 using the accelerating rotarod methodology. Animals were placed on the rod, which was accelerated 5-40 RPM over 180 seconds. Acceleration rate (0.19 RPM/second) was calculated from delta velocity (v2−v1) divided by delta time (t2−t1). The time to the first fall of each animal was documented, in addition to the distance and speed.

CYP2B6 = biological target: T3, CYP2B6 (Homo sapiens, UniProt P20813); test: CYP inhibition / time-dependent inhibition, CYP2B6_Bupropion; assay type: in vitro ADME; settings: role: inhibitor
T3 construct: pre-incubation of the human liver microsomes with the test compound; tissue Corning; host or cells: human liver microsomes
T3 sequence (P20813 1-491): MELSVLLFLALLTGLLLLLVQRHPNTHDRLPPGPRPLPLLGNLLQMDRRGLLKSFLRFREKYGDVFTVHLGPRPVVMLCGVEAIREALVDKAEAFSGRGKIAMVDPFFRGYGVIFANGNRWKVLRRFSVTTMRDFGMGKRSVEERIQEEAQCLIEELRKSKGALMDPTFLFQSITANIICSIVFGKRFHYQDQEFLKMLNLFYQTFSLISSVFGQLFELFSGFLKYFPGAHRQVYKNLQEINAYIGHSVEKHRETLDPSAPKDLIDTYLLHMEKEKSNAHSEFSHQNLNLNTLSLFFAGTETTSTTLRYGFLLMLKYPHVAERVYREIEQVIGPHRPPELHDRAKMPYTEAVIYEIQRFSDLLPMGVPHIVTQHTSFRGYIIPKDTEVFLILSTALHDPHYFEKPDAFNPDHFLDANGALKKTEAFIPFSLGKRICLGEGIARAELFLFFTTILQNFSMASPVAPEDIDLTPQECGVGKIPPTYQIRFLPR

CYP1A2 = biological target: T4, CYP1A2 (Homo sapiens, UniProt P05177); test: CYP inhibition / time-dependent inhibition, CYP1A2_Phenacetin; assay type: in vitro ADME; settings: role: inhibitor
T4 construct: pre-incubation of the human liver microsomes with the test compound; tissue Corning; host or cells: human liver microsomes
T4 sequence (P05177 1-516): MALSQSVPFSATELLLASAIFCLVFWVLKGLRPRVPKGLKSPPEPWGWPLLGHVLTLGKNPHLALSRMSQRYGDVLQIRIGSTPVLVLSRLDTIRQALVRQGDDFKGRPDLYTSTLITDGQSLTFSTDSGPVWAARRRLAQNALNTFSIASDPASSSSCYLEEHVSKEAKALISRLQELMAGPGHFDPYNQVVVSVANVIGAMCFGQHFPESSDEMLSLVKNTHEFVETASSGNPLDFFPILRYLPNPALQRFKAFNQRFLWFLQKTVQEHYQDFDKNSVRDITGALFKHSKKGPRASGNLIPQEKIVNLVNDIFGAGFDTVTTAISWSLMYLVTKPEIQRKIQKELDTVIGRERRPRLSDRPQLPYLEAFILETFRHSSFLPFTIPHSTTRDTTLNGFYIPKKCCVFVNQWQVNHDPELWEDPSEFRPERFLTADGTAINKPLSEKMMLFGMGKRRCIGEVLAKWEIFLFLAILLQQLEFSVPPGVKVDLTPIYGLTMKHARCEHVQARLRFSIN
Procedure: as §1, §2, §3, §4

Structure (SMILES): Cc1cn(-c2ccc(F)c(CC(=O)NCC(C)(C)O)c2)c2c(Cl)cc(Cl)cc12 [Compound 421]
LLE [1]: 2.1

Structure (SMILES): O=C(Cc1nccc(-n2cc(Cl)c3cc(Cl)cc(Cl)c32)n1)NC1COCC1O (stereo not shown) [Compound 760]
IC50 (CYP2C9; Table 9, read-out: CYP inhibition IC50 CYP2C9): 44.3 µM | Effect on Opioid mu (opioid mu receptor; up to 10 micromolar): no effect | Rotarod (rats; up to 300 mg/kg oral): displayed safety potential at up to 300 mg/kg oral dosing | IC50 (CYP2B6; Table 9, read-out: CYP inhibition IC50 CYP2B6): 34.9 µM | IC50 (CYP1A2; Table 9, read-out: CYP inhibition IC50 CYP1A2): > 50 µM

The next lines start with results.

CLint scaled [2]: 190 mL/min/kg | half-life [2]: 20.3 min | CLint scaled (Rat hepatocyte stability): 514 mL/min/kg | half-life (Rat hepatocyte stability): 12.6 min
Structure (SMILES): O=C(Cc1cc(-n2cc(Cl)c3cc(Cl)cc(Cl)c32)ccc1F)NCCO [Compound 627]

IC50 (CYP2C9; (+)NADPH pre-incubation, substrate diclofenac, read-out: IC50 (+)NADPH CYP2C9_Diclofenac): 13 µM | IC50 (CYP2C9; (−)NADPH pre-incubation, substrate diclofenac, read-out: IC50 (−)NADPH CYP2C9_Diclofenac): 14.8 µM | IC50 (opioid mu receptor): 6 µM | CLint scaled [2]: 73.8 mL/min/kg | half-life [2]: 52.2 min | CLint scaled (Rat hepatocyte stability): 1140 mL/min/kg | half-life (Rat hepatocyte stability): 5.7 min | IC50 (CYP2B6; (+)NADPH pre-incubation, substrate bupropion, read-out: IC50 (+)NADPH CYP2B6_Bupropion): 8.91 µM | IC50 (CYP2B6; (−)NADPH pre-incubation, substrate bupropion, read-out: IC50 (−)NADPH CYP2B6_Bupropion): 11 µM | IC50 (CYP1A2; (+)NADPH pre-incubation, substrate phenacetin, read-out: IC50 (+)NADPH CYP1A2_Phenacetin): > 50 µM | IC50 (CYP1A2; (−)NADPH pre-incubation, substrate phenacetin, read-out: IC50 (−)NADPH CYP1A2_Phenacetin): > 50 µM
Structure (SMILES): O=C(Cc1cncc(-n2cc(Cl)c3cc(Cl)cc(Cl)c32)c1)N[C@@H]1COC[C@H]1O [Compound 661]
Rotarod performance (rats; 20 and 50 mg/kg PO, 1 and 4 hour post-dose): did not affect rotarod performance

LLE [1]: 1.6 | LLE Kv 7.2/7.3 [1]: 0.8 | LLE TRPV1 [1]: −0.35
Structure (SMILES): CC(C)c1cc(Cl)cc(Cl)c1Nc1ccc(F)c(CC(=O)NCC(C)(C)O)c1 [NH91, reference compound]
